Tests used:
pigweed = test: Test C pre-/postemergence test; assay type: in vivo, Amaranthus retroflexus
Procedure, shortened: (§1)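 Compounds in a non-phytotoxic solvent with surfactant applied preemergence to seeded pots and, at the same time, postemergence to plants 2–18 cm tall (1- to 4-leaf stage). Paddy tests: pots flooded to 3 cm, compound applied into the water, depth held throughout.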

giant foxtail = test: Test C pre-/postemergence test; assay type: in vivo, Setaria faberii
Procedure, shortened: as §1

johnsongrass = test: Test C pre-/postemergence test; assay type: in vivo, Sorghum halepense
Procedure, shortened: as §1

wheat = test: Test A pre-/postemergence greenhouse test; assay type: in vivo, Triticum aestivum; conditions: for Plant response rating, Wheat: 0 to 100 scale where 0 is no effect and 100 is complete control; for Wheat plant response rating: 0 to 100 scale
Procedure, shortened: (§2)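 Untreated controls served as the reference for visual injury ratings taken about ten days after spraying. The non-phytotoxic solvent/surfactant formulation was applied preemergence to seeded loam and sand and postemergence to plants two to ten cm high.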

umbrella sedge = test: Test C flooded paddy test; assay type: in vivo, Cyperus difformis; conditions: Flood, 250 g ai/ha; scale 0 to 100, 0 no effect, 100 complete control; 13 to 15 days
Procedure, shortened: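 Test compounds are applied straight into paddy water held 3 cm above the soil surface, with that flood maintained for the whole test. After 13 to 15 days in the greenhouse, each species is scored visually relative to controls.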

Goosegrass = test: Test C pre-/postemergence test; assay type: in vivo, Eleusin indica
Procedure, shortened: as §1

crabgrass [1] = test: Test A pre-/postemergence greenhouse test; assay type: in vivo, Digitaria sanguinalis; conditions: for Plant response rating, Crabgrass, Large: 0 to 100 scale where 0 is no effect and 100 is complete control; for Crabgrass, Large plant response rating: 0 to 100 scale
Procedure, shortened: as §2

corn [2] = test: Test A pre-/postemergence greenhouse test; assay type: in vivo, Zea mays; conditions: for Plant response rating, Corn: 0 to 100 scale where 0 is no effect and 100 is complete control; for Corn plant response rating: 0 to 100 scale
Procedure, shortened: as §2

barnyardgrass = test: Test A pre-/postemergence greenhouse test; assay type: in vivo, Echinochloa crus-galli; conditions: for Plant response rating, Barnyardgrass: 0 to 100 scale where 0 is no effect and 100 is complete control; for Barnyardgrass plant response rating: 0 to 100 scale
Procedure, shortened: as §2

Italian ryegrass = test: Test C pre-/postemergence test; assay type: in vivo, Lolium multiflorum
Procedure, shortened: as §1

velvetleaf = test: Test C pre-/postemergence test; assay type: in vivo, Abutilon theophrasti
Procedure, shortened: as §1

crabgrass [3] = test: Test C pre-/postemergence test; assay type: in vivo, Digitaria sanguinalis
Procedure, shortened: as §1

morningglory = test: Test C pre-/postemergence test; assay type: in vivo, Ipomoea coccinea
Procedure, shortened: as §1

eastern black nightshade = test: Test C pre-/postemergence test; assay type: in vivo, Solanum ptycanthum
Procedure, shortened: as §1

[4] = system: common (oilseed) sunflower; test: Test C pre-/postemergence test; assay type: in vivo, Helianthus annuus
Procedure, shortened: as §1

corn [5] = test: Test C pre-/postemergence test; assay type: in vivo, Zea mays
Procedure, shortened: as §1

Surinam grass = test: Test C pre-/postemergence test; assay type: in vivo, Brachiaria decumbens
Procedure, shortened: as §1

[6] = 62 g ai/ha, Preemergence, scale 0 to 100
[7] = 125 g ai/ha, preemergence, scale 0 (no effect) to 100 (complete control)
[8] = Postemergence, 125 g ai/ha, scale 0 to 100, 0 no effect, 100 complete control
[9] = Postemergence, 250 g ai/ha, scale 0 to 100, 0 no effect, 100 complete control
[10] = Preemergence, 31 g ai/ha, scale 0 to 100 (0 no effect, 100 complete control)
[11] = preemergence, 250 g ai/ha, scale 0 (no effect) to 100 (complete control)
[12] = Postemergence, 62 g ai/ha, scale 0 to 100, 0 no effect, 100 complete control
[13] = Postemergence, 500 g ai/ha, 0 is no effect, 100 is complete control
[14] = Preemergence, 125 g ai/ha, 0 no effect, 100 complete control

[O-][n+]1cc(Cl)ccc1[S+]([O-])Cc1c(C(F)(F)F)nn(CC(F)(F)F)c1Cl (stereo not drawn) [Compound 47]
Pigweed plant response rating (pigweed; [6]): 100 | Pigweed plant response rating (pigweed; [7]): 100 | Plant response rating (0 to 100), Pigweed (pigweed; Postemergence, 31 g ai/ha): 0 | Plant response rating (0 to 100), Pigweed (pigweed; Postemergence, 62 g ai/ha): 0 | Plant response rating, Pigweed (pigweed; [8]): 0 | Plant response rating, Pigweed (pigweed; [9]): 45 | Plant response rating, Pigweed (pigweed; [10]): 70 | Pigweed plant response rating (pigweed; [11]): 100 | Foxtail, Giant plant response rating (giant foxtail; [6]): 100 | Foxtail, Giant plant response rating (giant foxtail; [7]): 100 | Plant response rating (0 to 100), Foxtail, Giant (giant foxtail; Postemergence, 31 g ai/ha): 0 | Plant response rating, Foxtail, Giant (giant foxtail; [12]): 0 | Plant response rating, Foxtail, Giant (giant foxtail; [8]): 0 | Plant response rating, Foxtail, Giant (giant foxtail; [9]): 50 | Plant response rating, Foxtail, Giant (giant foxtail; [10]): 85 | Foxtail, Giant plant response rating (giant foxtail; [11]): 100 | Johnsongrass plant response rating (johnsongrass; [6]): 90 | Johnsongrass plant response rating (johnsongrass; [7]): 100 | Plant response rating (0 to 100), Johnsongrass (johnsongrass; Postemergence, 31 g ai/ha): 0 | Plant response rating, Johnsongrass (johnsongrass; [12]): 0 | Plant response rating, Johnsongrass (johnsongrass; [8]): 0 | Plant response rating, Johnsongrass (johnsongrass; [9]): 85 | Plant response rating, Johnsongrass (johnsongrass; [10]): 85 | Johnsongrass plant response rating (johnsongrass; [11]): 100 | Plant response rating, Wheat (wheat; Postemergence, 125 g ai/ha): 50 | Wheat plant response rating (wheat; [13]): 60 | Wheat plant response rating (wheat; [14]): 60 | Plant response rating, Wheat (wheat; Preemergence, 500 g ai/ha): 90 | Plant response rating, Sedge, Umbrella (umbrella sedge): 100 | Goosegrass plant response rating (Goosegrass; [6]): 100 | Goosegrass plant response rating (Goosegrass; [7]): 100 | Plant response rating (0 to 100), Goosegrass (Goosegrass; Postemergence, 31 g ai/ha): 0 | Plant response rating, Goosegrass (Goosegrass; [12]): 0 | Plant response rating, Goosegrass (Goosegrass; [8]): 0 | Plant response rating, Goosegrass (Goosegrass; [9]): 60 | Plant response rating, Goosegrass (Goosegrass; [10]): 98 | Goosegrass plant response rating (Goosegrass; [11]): 100 | Plant response rating, Crabgrass, Large (crabgrass [1]; Postemergence, 125 g ai/ha): 80 | Crabgrass, Large plant response rating (crabgrass [1]; [13]): 90 | Crabgrass, Large plant response rating (crabgrass [1]; [14]): 80 | Plant response rating, Crabgrass, Large (crabgrass [1]; Preemergence, 500 g ai/ha): 100 | Plant response rating, Corn (corn [2]; Postemergence, 125 g ai/ha): 50 | Corn plant response rating (corn [2]; [13]): 70 | Corn plant response rating (corn [2]; [14]): 50 | Plant response rating, Corn (corn [2]; Preemergence, 500 g ai/ha): 90 | Plant response rating, Barnyardgrass (barnyardgrass; Postemergence, 125 g ai/ha): 80 | Barnyardgrass plant response rating (barnyardgrass; [13]): 90 | Barnyardgrass plant response rating (barnyardgrass; [14]): 90 | Plant response rating, Barnyardgrass (barnyardgrass; Preemergence, 500 g ai/ha): 100 | Ryegrass, Italian plant response rating (Italian ryegrass; [6]): 20 | Ryegrass, Italian plant response rating (Italian ryegrass; [7]): 50 | Plant response rating (0 to 100), Ryegrass, Italian (Italian ryegrass; Postemergence, 31 g ai/ha): 0 | Plant response rating (0 to 100), Ryegrass, Italian (Italian ryegrass; Postemergence, 62 g ai/ha): 0 | Plant response rating, Ryegrass, Italian (Italian ryegrass; [8]): 0 | Plant response rating, Ryegrass, Italian (Italian ryegrass; [9]): 40 | Plant response rating, Ryegrass, Italian (Italian ryegrass; [10]): 0 | Ryegrass, Italian plant response rating (Italian ryegrass; [11]): 85 | Velvetleaf plant response rating (velvetleaf; [6]): 0 | Velvetleaf plant response rating (velvetleaf; [7]): 70 | Plant response rating (0 to 100), Velvetleaf (velvetleaf; Postemergence, 31 g ai/ha): 0 | Plant response rating (0 to 100), Velvetleaf (velvetleaf; Postemergence, 62 g ai/ha): 0 | Plant response rating, Velvetleaf (velvetleaf; [8]): 0 | Plant response rating, Velvetleaf (velvetleaf; [9]): 20 | Plant response rating, Velvetleaf (velvetleaf; [10]): 0 | Velvetleaf plant response rating (velvetleaf; [11]): 100 | Crabgrass, Large plant response rating (crabgrass [3]; [6]): 100 | Crabgrass, Large plant response rating (crabgrass [3]; [7]): 100 | Plant response rating (0 to 100), Crabgrass, Large (crabgrass [3]; Postemergence, 31 g ai/ha): 0 | Plant response rating, Crabgrass, Large (crabgrass [3]; [12]): 0 | Plant response rating, Crabgrass, Large (crabgrass [3]; [8]): 0 | Plant response rating, Crabgrass, Large (crabgrass [3]; [9]): 30 | Plant response rating, Crabgrass, Large (crabgrass [3]; [10]): 98 | Crabgrass, Large plant response rating (crabgrass [3]; [11]): 100 | Morningglory plant response rating (morningglory; [6]): 100 | Morningglory plant response rating (morningglory; [7]): 100 | Plant response rating (0 to 100), Morningglory (morningglory; Postemergence, 31 g ai/ha): 0 | Plant response rating, Morningglory (morningglory; [12]): 0 | Plant response rating, Morningglory (morningglory; [8]): 0 | Plant response rating, Morningglory (morningglory; [9]): 60 | Plant response rating, Morningglory (morningglory; [10]): 100 | Morningglory plant response rating (morningglory; [11]): 100 | Nightshade plant response rating (eastern black nightshade; [6]): 85 | Nightshade plant response rating (eastern black nightshade; [7]): 90 | Plant response rating, Nightshade (eastern black nightshade; [10]): 0 | Nightshade plant response rating (eastern black nightshade; [11]): 100 | Sunflower plant response rating [4, 6]: 0 | Sunflower plant response rating [4, 7]: 0 | Plant response rating, Sunflower [4, 10]: 0 | Sunflower plant response rating [4, 11]: 0 | Corn plant response rating (corn [5]; [6]): 50 | Corn plant response rating (corn [5]; [7]): 98 | Plant response rating (0 to 100), Corn (corn [5]; Postemergence, 31 g ai/ha): 0 | Plant response rating, Corn (corn [5]; [12]): 0 | Plant response rating, Corn (corn [5]; [8]): 0 | Plant response rating, Corn (corn [5]; [9]): 60 | Plant response rating, Corn (corn [5]; [10]): 45 | Corn plant response rating (corn [5]; [11]): 98 | Surinam Grass plant response rating (Surinam grass; [6]): 80 | Surinam Grass plant response rating (Surinam grass; [7]): 100 | Plant response rating (0 to 100), Surinam Grass (Surinam grass; Postemergence, 31 g ai/ha): 0 | Plant response rating (0 to 100), Surinam Grass (Surinam grass; Postemergence, 62 g ai/ha): 0 | Plant response rating, Surinam Grass (Surinam grass; [8]): 0 | Plant response rating, Surinam Grass (Surinam grass; [9]): 60 | Plant response rating, Surinam Grass (Surinam grass; [10]): 50 | Surinam Grass plant response rating (Surinam grass; [11]): 100
